# From US7247649B2, “Oxazoles, their manufacture and use as pharmaceutical agents” (Hoffmann-La Roche Inc., priority 2003, dated 2007)
# Experiments:
# [1] = test system: A549 cells (human lung carcinoma cell line); test: A549 MTT cell proliferation assay (HER-signalling pathway inhibitors); assay type: cell-based; conditions: for IC50: Homo sapiens, A549 cells, 5 days (120 h) incubation, MTT readout at 550 nm, 3 μM to 0.15 nM; for activity (in words): reference compound in the A549 biological assay
# Description: A549 cells (human lung carcinoma cell line) were cultivated in RPMI 1640, 2.5% FCS, 2 mM Glutamine, 100 u/ml Penicillin, 100 μg/ml Streptomycin. For the assay the cells were seeded in 384 well plates, 900 cells per well, in the same medium. The next day compounds (dissolved 10 mM in DMSO) were added in various concentrations ranging from 3 μM to 0.15 nM (10 concentrations, 1:3 diluted). After 5 days the MTT assay was done mainly according to the instructions of the manufacturer (Cell proliferation kit I, MTT, from Roche Molecular Biochemicals). In brief: MTT labeling reagent was added to a final concentration of 0.5 mg/ml, added and incubated for 4 hrs at 37 C, 5% CO2. During this incubation time purple formazan crystals are formed. After addition of the solubilization solution (20% SDS in 0.02 M HCl) the plates were incubated overnight at 37° C., 5% CO2. After careful mixing plates were measured in Victor 2 (scanning multiwell spectrophotometer, Wallac) at 550 nm.
# A decrease in number of living cells results in a decrease in the total metabolic activity in the sample. The decrease directly correlates to the amount of purple color resulting from the solubilization of the purple formazan crystals.
# A549: 900 cells in 60 μl per well of 384 well plate (Greiner)
# Medium: RPMI 1640, 2.5% FCS, glutamine, pen/strep.
# Induction: • Dilution of compound in DMSO: 3 μl 10 mM+27 μl DMSO, dilute 1:3 • Add 2 μl of compound dilution row to 95 ul of medium • Add 10 μl of compound dilution to 60 μl medium in test plate→0.3% DMSO per well • Incubate 120 h (5 days) at 37° C., 5% CO2
# Analysis: • Add 7 μl MTT (5 mg 7 ml/well), incubate 4 h at 37° C. • Add 30 μl lysis buffer (20% SDS, 0.04 N HCl) per well • Incubate overnight at 37° C.
# Measurement: • Victor 2, 550 nm • Determination of IC50 was done using XL-fit.
IC50 [1] [nM],melting point [°C],Compound,activity (in words) [1]
3550,–,"FC(F)(F)c1cccc(/C=C/c2nc(COc3ccc(CCCCn4ccnn4)cc3)co2)c1 [Example 4, 1-[4(4-{2-[2-(E)-(3-Trifluoromethyl-phenyl)-vinyl]-oxazol-4-ylmethoxy}-phenyl)-butyl]-1H-[1,2,3]triazole]",inactive
7,–,"FC(F)(F)c1ccc(C=Cc2nc(COc3ccc(CCCCn4ccnn4)cc3)co2)cc1 [reference, 1-[4-(4-{2-[2-(4-trifluoromethyl-phenyl)-vinyl]-oxazol-4-ylmethoxy}-phenyl)-butyl]-1H-[1,2,3]triazole, reference compound]",less activity than the compounds of the present invention
2,–,"Fc1cc(C(F)(F)F)ccc1/C=C/c1nc(COc2ccc(CCCCn3ccnn3)cc2)co1 [Example 3, 1-[4-(4-{2-[2-(E)-(2-Fluoro-4-trifluoromethyl-phenyl)-vinyl]-oxazol-4-ylmethoxy}-phenyl)-butyl]-1H-[1,2,3]triazole]",–
460,146 to 149,"Fc1cc(/C=C/c2nc(COc3ccc(CCCCn4ccnn4)cc3)co2)ccc1Cl [Example 1, 1-[4-(4-{2-[2-(E)-(4-Chloro-3-fluoro-phenyl)-vinyl]-oxazol-4-ylmethoxy}-phenyl)-butyl]1H-[1,2,3]triazole]",do not have reasonable activity
< 5,–,"Fc1cc(Cl)ccc1/C=C/c1nc(COc2ccc(CCCCn3ccnn3)cc2)co1 [Example 2, 1-[4-(4-{2-[2-(E)-(4-Chloro-2-fluoro-phenyl)-vinyl]-oxazol-4-ylmethoxy}-phenyl)-butyl]-1H-[1,2,3]triazole]",–
900,–,"Clc1ccc(/C=C/c2nc(COc3ccc(CCCCn4ccnn4)cc3)co2)cc1Cl [Example 5, 1-[4-(4-{2-[2-(E)-(3,4-Dichloro-phenyl)-vinyl]-oxazol-4-ylmethoxy}-phenyl)-butyl]-1H-[1,2,3]triazole]",do not have reasonable activity
